Laboratory results taken from US9873883B2, “Glyphosate resistant plants and associated methods” (Dow AgroSciences LLC, priority 2012, dated 2018).

Experiments:
Experiment in all cases: In vitro kinetic assay (inorganic phosphate production, malachite green)
Assay type in all cases: biochemical
[1] = target: Glycine max (soybean) EPSP synthase DGT-1 v5, native, SEQ ID NO: 59 (Glycine max, UniProt I1J7U9)
Description: (§1) FIG. 1 depicts a partial sequence alignment of DGT-14 (SEQ ID NO:46), DGT-11 (SEQ ID NO:47), DGT-12 (SEQ ID NO:49), DGT-18 (SEQ ID NO:50), DGT-29 (SEQ ID NO:53), and DGT-30 (SEQ ID NO:52) to other EPSP synthase enzymes, such as; grg-23 (SEQ ID NO:54; derived from U.S. Pat. No. 7,834,249), CP4 (SEQ ID NO:48; GENBANK ACC NO: AEM75108.1) from Agrobacterium tumefaciens, DGT-3 (SEQ ID NO:57; GENBANK ACC NO: P17688) from Brassica napus, DGT-1 (SEQ ID NO:56) from Glycine max, DGT-7 (SEQ ID NO:55; GENBANK ACC NO: EU977181) from Triticum aestivum, and aroA (SEQ ID NO:51; Padgette et al., (1991); Eschenburg et al., (2002); Priestman et al., (2005); Haghani et al., (2008) from Escherichia coli. All six DGT enzymes (DGT-14, DGT-11, DGT-12, DGT-18, DGT-30, and DGT-29) share a conserved alanine at the aroA EPSP synthase enzyme amino acid position 96. The location of this amino acid is indicated by an asterisk, and the amino acid residue is underlined.
(§2) The location of the amino acid residue which was mutated from glycine to alanine is indicated by the first asterisk. The location of the amino acid residue which was mutated from threonine to isoleucine is indicated by the second asterisk. The location of the third amino acid residue which was mutated from proline to serine is indicated by the third asterisk.
(§3) The following Class I enzymes: DGT-1 from Glycine max, DGT-3 from Brassica napus (GENBANK ACC NO: P17688), and DGT-7 from Triticum aestivum (GENBANK ACC NO: EU977181) were used as a comparison. The Class I EPSP synthase enzymes and mutant variants thereof were synthesized and evaluated. A mutation introduced into the plant EPSP synthase enzymes consisted of the Glycine to Alanine mutation made within the EPSP synthase enzyme at a similar location as that of the G96A mutation from the E. coli version of the enzyme. In addition, Threonine to Isoleucine and Proline to Serine mutations were introduced within these Class I EPSP synthase enzymes at analogous positions as that of amino acid 97 (T to I) and amino acid 101 (P to S) in the EPSP synthase of E. coli as described in Funke et al., (2009).
(§4) Additional constructs containing the dgt-1, dgt-3 and dgt-7 were synthesized. These constructs were used for in vitro testing of the dgt-1 v5, dgt-1 v6, dgt-1 v7, dgt-1 v8, dgt-3 v6, dgt-3 v7, dgt-3 v8, dgt-7 v5, dgt-7 v6, dgt-7 v7, and dgt-7 v8 gene sequences were outsourced to GeneArt for synthesis and cloning. The synthesized genes were cloned into the pET28 expression vector. […]

[2] = target: Triticum aestivum (wheat) EPSP synthase DGT-7 v5, native (GENBANK EU977181), SEQ ID NO: 60 (Triticum aestivum, UniProt B5M6A1)
Sequence of Triticum aestivum (wheat) EPSP synthase DGT-7 v5, native (GENBANK EU977181), SEQ ID NO: 60 (B5M6A1 entry or part of it): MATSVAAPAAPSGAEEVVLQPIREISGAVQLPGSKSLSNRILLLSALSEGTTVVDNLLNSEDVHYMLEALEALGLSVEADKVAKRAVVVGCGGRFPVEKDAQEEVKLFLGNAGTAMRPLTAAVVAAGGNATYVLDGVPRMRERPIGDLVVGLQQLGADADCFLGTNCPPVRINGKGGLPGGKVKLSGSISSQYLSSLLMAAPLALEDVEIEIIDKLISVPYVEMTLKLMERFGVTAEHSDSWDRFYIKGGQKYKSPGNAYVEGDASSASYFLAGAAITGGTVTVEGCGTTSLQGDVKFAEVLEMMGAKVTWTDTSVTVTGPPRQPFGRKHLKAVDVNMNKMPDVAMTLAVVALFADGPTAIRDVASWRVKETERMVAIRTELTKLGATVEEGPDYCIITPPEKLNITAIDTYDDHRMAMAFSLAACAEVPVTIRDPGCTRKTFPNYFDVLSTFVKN
Description: as §1, §2, §3, §4

[3] = tested on: bacterial EPSP synthase DGT-12 (GENBANK ZP_01622155.1) variant DGT-12 v6 (G→A at residue 111), SEQ ID NO:7
Description: The novel DGT-14, DGT-12, DGT-18, DGT-29 and DGT-30 enzymes were obtained and the glycine to alanine mutation was introduced into the EPSP synthase enzymes at a location analogous to the G96A location described for the E. coli version of the EPSP synthase enzyme. The DGT-14 protein sequence was modified by introducing an alanine to replace the endogenous glycine of GENBANK ACC NO: ZP_01452683 at amino acid residue 101, thereby resulting in SEQ ID NO:1. The DGT-12 protein sequence was modified by introducing an alanine to replace the endogenous glycine of GENBANK ACC NO: ZP_01622155.1 at amino acid residue 111, thereby resulting in SEQ ID NO:7. The DGT-18 protein sequence was modified by introducing an alanine to replace the endogenous glycine of GENBANK ACC NO: NP_928909.1 at amino acid residue 96, thereby resulting in SEQ ID NO:9. The DGT-29 protein sequence was modified by introducing an alanine to replace the endogenous glycine of GENBANK ACC NO: YP_322772.1 at amino acid residue 96, thereby resulting in SEQ ID NO:11. The DGT-30 protein sequence was modified by introducing an alanine to replace the endogenous glycine of GENBANK ACC NO: ZP_02156189.1 at amino acid residue 96, thereby resulting in SEQ ID NO:13.
The synthesized genes were cloned into the pET28 expression vector.
Recombinant DGT proteins were overexpressed in Rosetta2™ (DE3) cells (Novagen, Madison, Wis.) from the constructs described above. A single colony was used to inoculate 50 mL starter cultures of LB containing chloramphenicol (25 μg/mL) and kanamycin (50 μg/mL) which were cultivated overnight at 37° C. The overnight cultures were used to inoculate 1 L of LB containing chloramphenicol (25 μg/mL) and kanamycin (50 μg/mL). The cultures were grown at 37° C. to an O.D.600=0.6 then placed in an ice water bath for 10 minutes. Expression of the target proteins was achieved by addition of IPTG to a final concentration of 500 μM. Induction was allowed to proceed overnight at 20° C. followed by harvesting via centrifugation at 8,000 rpm for 20 minutes. […]

Sequence of Glycine max (soybean) EPSP synthase DGT-1 v5, native, SEQ ID NO: 59 (I1J7U9 entry or part of it): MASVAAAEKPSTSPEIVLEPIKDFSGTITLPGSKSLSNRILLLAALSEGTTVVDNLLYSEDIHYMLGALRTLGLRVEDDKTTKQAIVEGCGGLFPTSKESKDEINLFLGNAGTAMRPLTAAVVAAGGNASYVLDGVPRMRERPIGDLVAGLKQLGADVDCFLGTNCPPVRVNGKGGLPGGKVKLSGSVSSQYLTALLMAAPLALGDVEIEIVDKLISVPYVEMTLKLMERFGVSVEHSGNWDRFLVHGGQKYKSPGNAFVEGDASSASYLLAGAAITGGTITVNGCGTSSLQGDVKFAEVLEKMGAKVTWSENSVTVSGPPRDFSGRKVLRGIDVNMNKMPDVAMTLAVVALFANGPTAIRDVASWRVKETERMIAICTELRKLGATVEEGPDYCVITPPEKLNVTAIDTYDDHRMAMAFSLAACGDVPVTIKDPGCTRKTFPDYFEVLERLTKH

Compound	kcat/Km ([1]; PEP, pH 7.5, 1 mM S3P) [M⁻¹ s⁻¹]	kcat/Km ([2]; PEP, pH 7.5, 1 mM S3P) [M⁻¹ s⁻¹]	kcat/Km ([3]; PEP, pH 7.5, 1 mM S3P) [M⁻¹ s⁻¹]	Km ([3]; read-out: Km for PEP, pH 7.5, 1 mM S3P) [µM]	IC50 [1] [µM]	IC50 [2] [µM]	IC50 ([3]; at 1 mM PEP, read-out: IC50 (glyphosate)) [µM]
C=C(OP(=O)(O)O)C(=O)O [PEP, phosphoenolpyruvate]	74100	215000	700	128			
O=C(O)CNCP(=O)(O)O [glyphosate, N-(phosphonomethyl)glycine]					~20	~20	4000
